The values that follow come from paper PMC7283026 (Neuro-Oncology, 2020).

In one data set the target is human P-gp (Homo sapiens, UniProt P08183). In kind it is in vitro ADME. The conditions noted are these: LLC-PK1.
A further data set concerns the target mouse P-gp (Mus musculus, UniProt P21447). The class given is in vitro ADME. The settings on record: LLC-PK1.
Data set [1] is described as follows: Kinetic lipid membrane binding assay. The settings on record: pig, pH 7.4. In kind it is in vitro ADME, porcine.
The next data set has as its system P-gp. The settings on record: cited from earlier work.
For data set [2] the following is noted: rat plasma; from FDA pharmacology reviews; cited from earlier work.
For data set [3] the following is noted: cited from earlier work; for Cave,ss, reported clinical concentration: patients, efficacious dose.
Data set [4] can be described thus: Brain distribution study following i.v. bolus and i.v. infusion in rats. The conditions noted are these: rat; for δ brain concentration at SS / δ plasma concentration at SS: difference between the two time points, (SD).
The nature of data set [5]: Plasma protein binding by equilibrium dialysis, human plasma. In kind it is in vitro ADME. The settings on record: pH 7.5. On the technique in general: Equilibrium dialysis compares concentrations on both sides of a semipermeable membrane.
A short description of data set [6]: Plasma protein binding by equilibrium dialysis, mouse plasma. In kind it is in vitro ADME. The settings on record: pH 7.5.
A short description of data set [7]: Plasma protein binding, rat plasma. The settings on record: pH 7.5. In kind it is in vitro ADME.
Data set [8] relates to KM12-Luc intracranial tumor. The data set can be described thus: Efficacy in KM12-Luc intracranial tumor xenograft mouse model. The conditions noted are these: 28 days. The class given is in vivo, athymic nu/nu mice.
Data set [9] in a line: Plasma pharmacokinetics in KM12-Luc ITC tumor-bearing mice. The conditions noted are these: for AUC(0-t): Balb/c nude, mouse, in vivo, po. In kind it is in vivo, Balb/c nude mice.
Data set [10] is described as follows: Single oral-dose in vivo PK study of rats. The settings on record: rat.
Another data set concerns BNN2 and BNN4 gliomas. The settings on record: clinically relevant systemic exposures; cited from earlier work.
The test system of the next data set is TRKA/B/C. The conditions noted are these: read-out: IC50 against TRKA/B/C; cited from earlier work.
The subject of data set [11] is breast cancer resistance protein (BCRP). The conditions noted are these: cited from earlier work.
Where [12] appears, read: recommended human oral dose of 600 mg/kg q.d.

A value given as a limit tells only on which side of the number the result lay.

mouse P-gp, sequence (P21447 whole entry): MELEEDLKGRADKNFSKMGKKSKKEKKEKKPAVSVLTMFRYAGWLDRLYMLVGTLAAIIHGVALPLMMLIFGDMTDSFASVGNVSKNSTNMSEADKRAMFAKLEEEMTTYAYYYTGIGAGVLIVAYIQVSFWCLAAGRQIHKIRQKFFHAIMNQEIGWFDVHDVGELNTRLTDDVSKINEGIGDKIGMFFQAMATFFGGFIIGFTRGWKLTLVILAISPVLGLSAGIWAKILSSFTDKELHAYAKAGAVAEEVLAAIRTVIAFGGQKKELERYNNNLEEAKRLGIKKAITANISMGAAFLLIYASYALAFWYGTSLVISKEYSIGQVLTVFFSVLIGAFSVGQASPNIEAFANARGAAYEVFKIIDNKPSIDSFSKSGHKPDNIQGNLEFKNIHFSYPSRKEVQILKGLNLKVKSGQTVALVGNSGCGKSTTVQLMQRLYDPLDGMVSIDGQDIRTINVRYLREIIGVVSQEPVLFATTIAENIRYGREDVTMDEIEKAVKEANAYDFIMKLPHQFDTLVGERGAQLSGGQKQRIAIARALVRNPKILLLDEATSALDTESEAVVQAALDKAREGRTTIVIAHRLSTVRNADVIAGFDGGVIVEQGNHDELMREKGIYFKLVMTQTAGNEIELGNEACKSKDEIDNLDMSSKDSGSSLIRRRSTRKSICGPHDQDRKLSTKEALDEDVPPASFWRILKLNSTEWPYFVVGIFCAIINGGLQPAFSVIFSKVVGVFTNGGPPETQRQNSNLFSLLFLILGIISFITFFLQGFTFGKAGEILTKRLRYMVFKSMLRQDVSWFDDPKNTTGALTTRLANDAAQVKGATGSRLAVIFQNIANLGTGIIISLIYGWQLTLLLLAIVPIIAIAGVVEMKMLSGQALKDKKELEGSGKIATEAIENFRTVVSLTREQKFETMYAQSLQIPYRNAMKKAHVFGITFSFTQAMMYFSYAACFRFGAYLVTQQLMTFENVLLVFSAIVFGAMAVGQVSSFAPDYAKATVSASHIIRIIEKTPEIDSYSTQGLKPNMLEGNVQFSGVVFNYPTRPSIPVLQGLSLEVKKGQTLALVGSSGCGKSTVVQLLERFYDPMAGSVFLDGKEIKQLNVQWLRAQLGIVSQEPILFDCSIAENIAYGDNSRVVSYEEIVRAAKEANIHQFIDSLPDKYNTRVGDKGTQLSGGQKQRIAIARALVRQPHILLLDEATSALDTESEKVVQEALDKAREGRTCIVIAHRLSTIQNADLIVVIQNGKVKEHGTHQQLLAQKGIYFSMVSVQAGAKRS
human P-gp, sequence (P08183 whole entry): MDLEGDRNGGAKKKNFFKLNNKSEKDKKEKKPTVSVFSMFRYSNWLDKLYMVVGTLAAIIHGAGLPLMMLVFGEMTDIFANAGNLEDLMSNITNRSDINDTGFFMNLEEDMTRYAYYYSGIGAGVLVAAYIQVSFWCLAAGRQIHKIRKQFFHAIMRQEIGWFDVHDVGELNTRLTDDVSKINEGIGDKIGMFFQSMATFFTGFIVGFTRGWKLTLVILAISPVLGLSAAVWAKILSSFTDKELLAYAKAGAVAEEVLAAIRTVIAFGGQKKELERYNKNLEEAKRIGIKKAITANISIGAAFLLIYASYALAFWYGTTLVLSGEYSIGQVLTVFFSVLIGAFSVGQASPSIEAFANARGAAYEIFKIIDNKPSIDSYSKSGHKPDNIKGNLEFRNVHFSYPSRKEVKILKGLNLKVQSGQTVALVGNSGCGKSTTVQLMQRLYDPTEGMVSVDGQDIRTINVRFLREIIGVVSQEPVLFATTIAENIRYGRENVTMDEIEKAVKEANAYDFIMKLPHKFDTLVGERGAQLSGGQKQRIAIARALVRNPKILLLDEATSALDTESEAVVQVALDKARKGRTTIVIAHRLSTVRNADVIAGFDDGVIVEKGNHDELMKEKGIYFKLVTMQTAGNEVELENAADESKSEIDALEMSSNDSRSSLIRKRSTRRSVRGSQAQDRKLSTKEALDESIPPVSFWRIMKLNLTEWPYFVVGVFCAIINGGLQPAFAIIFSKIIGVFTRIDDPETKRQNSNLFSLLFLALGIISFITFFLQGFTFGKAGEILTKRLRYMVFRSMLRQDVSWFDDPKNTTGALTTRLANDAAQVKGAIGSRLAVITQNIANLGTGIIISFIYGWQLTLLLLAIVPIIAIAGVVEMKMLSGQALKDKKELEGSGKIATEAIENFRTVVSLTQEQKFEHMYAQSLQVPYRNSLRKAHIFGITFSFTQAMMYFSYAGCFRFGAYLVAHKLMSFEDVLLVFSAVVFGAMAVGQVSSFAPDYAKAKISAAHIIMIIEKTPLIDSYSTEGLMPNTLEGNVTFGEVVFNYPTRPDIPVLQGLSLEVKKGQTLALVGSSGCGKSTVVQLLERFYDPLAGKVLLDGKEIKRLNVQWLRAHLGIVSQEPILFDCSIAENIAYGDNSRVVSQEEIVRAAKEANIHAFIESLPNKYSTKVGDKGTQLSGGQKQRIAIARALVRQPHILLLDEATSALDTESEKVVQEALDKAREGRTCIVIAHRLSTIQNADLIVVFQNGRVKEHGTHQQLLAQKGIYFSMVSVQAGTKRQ

As to `C[C@@H](Oc1cc(-c2cnn(C3CCNCC3)c2)cnc1N)c1c(Cl)ccc(F)c1Cl` [Crizotinib, crizotinib], at human P-gp, the Papp A→B – broadly, how fast a substance crosses the layer from the apical side – at 3.5 h, 1 µM amounted to 1.38 ± 0.03 ×10⁻⁶ cm/s and the Papp B→A (in general, how fast a substance crosses the layer from the basolateral side) at 3.5 h, 1 µM is 38.8 ± 1.7 ×10⁻⁶ cm/s. Also, on mouse P-gp, the Papp A→B at 3.5 h, 1 µM worked out at 1.2 ± 0.15 ×10⁻⁶ cm/s and the Papp B→A at 3.5 h, 1 µM turned out to be 34.4 ± 1.68 ×10⁻⁶ cm/s. Besides, the half-life (in general, how long it takes for the measured level to halve) at 10 µM in data set [1] was 7.4 min. The “known substrate for P-gp” value with P-gp is “known substrates for P-gp”. In addition, the Fu in plasma in data set [2] is on record as 0.057. Further, in data set [3], the “Cave,ss, reported clinical concentration” value is on record as 874 nM. In data set [4] (male, Sprague Dawley, in vivo), this compound returned a Kp at 5 h of 0.041 and a Kp at 6 h of 0.028. For the same compound, in data set [4], the “δ brain concentration at SS” value is listed as 87 (12.1–131) nM and the “δ plasma concentration at SS” value was 12 (47.9–53.7) nM.
Turning to `C[C@H]1O[C@@H](O[C@H]2[C@@H](O)C[C@H](O[C@H]3[C@@H](O)C[C@H](O[C@H]4CC[C@@]5(C)[C@H](CC[C@@H]6[C@@H]5C[C@@H](O)[C@]5(C)[C@@H](C7=CC(=O)OC7)CC[C@]65O)C4)O[C@@H]3C)O[C@@H]2C)C[C@H](O)[C@@H]1O` [Digoxin, digoxin], at human P-gp, the Papp B→A at 3.5 h, 1 µM is 12.1 ± 0.73 ×10⁻⁶ cm/s and the efflux ratio (usually the permeability from basolateral to apical divided by that in the opposite direction, in the common usage) at 3.5 h, 1 µM is 11. Moreover, at mouse P-gp, the Papp A→B at 3.5 h, 1 µM was found to be 1.22 ± 0.1 ×10⁻⁶ cm/s; the Papp B→A at 3.5 h, 1 µM is 12.5 ± 0.28 ×10⁻⁶ cm/s; the efflux ratio at 3.5 h, 1 µM stood at 10.
Regarding `CN1CCN(c2ccc(C(=O)Nc3n[nH]c4ccc(Cc5cc(F)cc(F)c5)cc34)c(NC3CCOCC3)c2)CC1` [Entrectinib, entrectinib], the Papp A→B at 3.5 h, 1 µM on human P-gp stood at 1.35 ± 0.34 ×10⁻⁶ cm/s; at mouse P-gp, 0.99 ± 0.04 ×10⁻⁶ cm/s. Also, the Papp B→A at 3.5 h, 1 µM at human P-gp was 19.7 ± 0.5 ×10⁻⁶ cm/s; on mouse P-gp, 25.5 ± 1.9 ×10⁻⁶ cm/s. In data set [1], the half-life at 10 µM was 9.6 min. In addition, the values for the fraction unbound at 5 h in data set [5], in data set [6] and in data set [7] were 0.0022 ± 0.0005, 0.0034 ± 0.0003 and 0.0032 ± 0.0009, respectively. Further, the “Survival through day 28” value is given as 0% in [8] (1 mg/kg b.i.d. oral); 11% in data set [8] (5 mg/kg b.i.d. oral); 67% in data set [8] (10 mg/kg q.d. oral); 100% in data set [8] (15 mg/kg b.i.d. oral); 100% in data set [8] (30 mg/kg q.d. oral); 100% in [8] (60 mg/kg b.i.d. oral). In data set [8] (all dose levels tested (1, 5, 15, 60 mg/kg b.i.d.; 10, 30 mg/kg q.d.)), the Tolerability result is “well tolerated”. For the same compound, the AUC(0-t) (as a rule, the area under the concentration-time curve up to a stated or last time point) in data set [9] (2 mg/kg/day) is 1.3 µM·h; in [9] (10 mg/kg/day), 11.3 µM·h; in [9] (30 mg/kg), 24.5 to 54.8 µM·h; in [9] (30 mg/kg/day) it was 38.3 µM·h; in [9] (60 mg/kg/day), 45.3 µM·h; in data set [9] (120 mg/kg/day) it was 99.9 µM·h. The “average plasma concentration (AUC24h/24 hours)” value in data set [9] (oral, daily dose of 30 mg/kg) is ~ 1.6 µM. The Kp in [10] (brain / plasma, po, 20 mg/kg) amounted to 0.185. Further, the “concentration in the CSF” value in data set [10] (single oral dose 20 mg/kg, inferior to the LLOQ, data not shown) is recorded as less than 1 nM. Besides, in the data set on BNN2 and BNN4 gliomas, the “antitumor effect in intracranial NTRK1 fusion-positive glioma model” value was “tumor growth inhibition and full survival benefit”. Moreover, the “Cave,ss, reported clinical concentration” value in data set [3] is on record as 2000 nM. Further, in [3] (setting [12]), the “AUC24h at SS in patients” value is 48 µM·h. For the same compound, the “estimated average plasma concentration in patients” value in [3] (setting [12]) is “approximately 2.0 µM”. Moreover, the Kp at 5 h in [4] (male, Sprague Dawley, in vivo, Measured CSF/Cu,p ratio, 5 h) came out at 0.25. The Kp at 6 h in data set [4] (male, Sprague Dawley, in vivo, Measured CSF/Cu,p ratio, 6 h) was 0.18. Moreover, the “δ brain concentration at SS” value in data set [4] is 276 (71.2–186) nM; in [4] (listed as entrectinib), 276 nM. Further, the entries for the “δ plasma concentration at SS” value in [4] and in [4] (listed as entrectinib) were 140 (109–430) nM and 140 nM, respectively.
In the case of `O=C(Nc1cnn2ccc(N3CCC[C@@H]3c3cc(F)ccc3F)nc12)N1CC[C@H](O)C1` [Larotrectinib, larotrectinib], on human P-gp, the Papp A→B at 3.5 h, 1 µM came to 1.85 ×10⁻⁶ cm/s; the Papp B→A at 3.5 h, 1 µM was determined as 18.2 ± 3.7 ×10⁻⁶ cm/s; the efflux ratio at 3.5 h, 1 µM was found to be 10. Besides, at mouse P-gp, the Papp A→B at 3.5 h, 1 µM was 0.82 ± 0.07 ×10⁻⁶ cm/s; the Papp B→A at 3.5 h, 1 µM was found to be 16.1 ± 0.7 ×10⁻⁶ cm/s; the efflux ratio at 3.5 h, 1 µM turned out to be 20. Further, the half-life at 10 µM in [1] came to 6.2 min. In addition, the “known substrate for P-gp” value in the data set with P-gp is reported as “known substrates for P-gp”. Also, the Fu in plasma in data set [2] is given as 0.349. In addition, the IC50 with TRKA/B/C was 5 to 11 nM. Further, in [11], the “substrate of breast cancer resistance protein (BCRP)” value is reported as “substrate”. Also, in data set [3], the “Cave,ss, reported clinical concentration” value is 423 nM. In [4] (male, Sprague Dawley, in vivo), this compound gave a Kp at 4 h of 0.027 and a Kp at 5 h of 0.031. Moreover, in data set [4], the “δ brain concentration at SS” value is on record as 1.6 (3.74–5.60) nM and the “δ plasma concentration at SS” value is recorded as 2 (46.3–82.2) nM.
